Measured values published in patent publication US9790496B2, “Microrna compounds and methods for modulating MIR-21 activity” (Regulus Therapeutics, Inc., priority 2011, dated 2017).

Experiments:
[1] = Ex vivo liver homogenate stability assay (HPLC-TOF MS); conditions: 24 hours, 37° C.; for ex vivo (liver) N %↓: 5 μM oligonucleotide in liver homogenate (50 mg tissue per ml), decrease of full-length compound; for ex vivo (liver) % N-1 / ex vivo (liver) % Endo: 5 μM oligonucleotide in liver homogenate; for ex vivo (liver) % N-1: compound lacking one terminal nucleoside; for ex vivo (liver) % Endo: endonuclease products
[2] = tested on: collagen 1A1 and collagen 3A1 expression in kidney, unilateral ureteral obstruction (UUO) model; assay: UUO model of kidney fibrosis: kidney collagen 1A1 and collagen 3A1 expression by real-time PCR; type: in vivo, mice; conditions: UUO; 20 mg/kg at days -5, -3, +3; kidney at day 10
Protocol: Unilateral ureteral obstruction (UUO) is a well-established experimental model of renal injury leading to interstitial fibrosis, and thus is used as an experimental model that is reflective of human kidney disease. UUO is induced by surgically ligating a single ureter. As fibrosis is characterized by an increase in collagen, the presence and extent of kidney fibrosis may be determined by measuring collagen content. Both collagen 1A1 (Col 1A1) and collagen 3A1 (Col 3A1) are measured to assess collagen content. Kidney fibrosis may be visualized by staining tissue samples with picro-sirius red to detect increases in collagen content. Kidney fibrosis may also be observed by measuring the amount of hydroxyproline, which is a major component of collagen, in a sample.
The cEt-containing anti-miR-21 compounds found to be active in the luciferase assay were tested in the UUO model of kidney fibrosis. 25919 comprising 2′-MOE and 2′-fluoro modifications is known to inhibit miR-21 activity in vivo and was included as a positive control. Groups of 8 animals each were treated as follows: UUO only, UUO with PBS, or UUO with anti-miR-21 compound. Relative to the day of the UUO procedure, PBS or anti-miR-21 compound was administered at days −3, −1, and +5. Anti-miR-21 compounds were administered at a dose of 20 mg/kg. As the anti-miR compounds were administered prior to the UUO procedure, this dosing regimen is considered a prophylactic treatment. At day 11, animals were sacrificed and kidney was isolated for measurement of collagen expression. Collagen expression was measured by real-time PCR and normalized first to GAPDH and then to the sham control animals. […]

[3] = In vivo stability: compound in kidney tissue after administration to mice; conditions: kidney tissue after administration to mice; for in vivo (kidney) N-1(%): compound lacking one terminal nucleoside; for in vivo (kidney) N(%): full-length compound

Sequence	ex vivo (liver) N %↓ [1]	ex vivo (liver) % N-1 [1]	ex vivo (liver) % Endo [1]	reduction of collagen 1A1 expression (in words, FIG. 2A) [2]	reduction of collagen 3A1 expression (in words, FIG. 2B) [2]	in vivo (kidney) N-1(%) [3]	in vivo (kidney) N(%) [3]
AECSATCSASGTCSUSGAUSASAGCSUSAE (ACATCAGTCTGATAAGCTA; modified nucleosides coded in name, code key not given here) [Compound 25220]	3%	0%	3%	reduced collagen 1A1 and collagen 3A1 expression by a statistically significant amount	reduced collagen 1A1 and collagen 3A1 expression by a statistically significant amount	16 ± 6%	67 ± 16%
AECSATCSAGTCSTGAUSAAGCSUSAS (ACATCAGTCTGATAAGCTA; modified nucleosides coded in name, code key not given here) [Compound 25221]	3%	0%	3%	reduced collagen 1A1 and collagen 3A1 expression by a statistically significant amount	reduced collagen 1A1 and collagen 3A1 expression by a statistically significant amount	4 ± 1%	76 ± 4%
